According to ChEMBL document CHEMBL3046687, “New thiazolidine-2,4-diones as antimicrobial and cytotoxic agent” (Med Chem Res, 2012):
≈ marks a conversion by molar mass, not a printed value.

Assays:
Staphylococcus aureus = experiment: Antimicrobial activity against Staphylococcus aureus ATCC 25923 after 24 hr by two fold serial dilution method; assay type: functional; conditions: ATCC 25923, 24 h
Enterococcus faecalis = experiment: Antimicrobial activity against Enterococcus faecalis ATCC 35550 after 24 hr by two-fold serial dilution method; assay type: functional; conditions: ATCC 35550, 24 h
Cryptococcus neoformans = experiment: Antimicrobial activity against Cryptococcus neoformans clinical isolate after 48 hr by two-fold serial dilution method; assay type: functional
Escherichia coli = experiment: Antimicrobial activity against Escherichia coli ATCC 35218 after 24 hr by two-fold serial dilution method; assay type: functional; conditions: ATCC 35218, 24 h
MCF7 = experiment: Cytotoxicity against Homo sapiens (human) MCF7 cells after 24 hr by MTT assay; assay type: functional, cell-based; conditions: MCF7, 24 h
Candida albicans = experiment: Antimicrobial activity against Candida albicans ATCC 2091 after 48 hr by two-fold serial dilution method; assay type: functional; conditions: ATCC 2091, 48 h
Pseudomonas aeruginosa = experiment: Antimicrobial activity against Pseudomonas aeruginosa ATCC 25619 after 24 hr by two-fold serial dilution method; assay type: functional; conditions: ATCC 25619, 24 h
HeLa = experiment: Cytotoxicity against Homo sapiens (human) HeLa cells after 24 hr by MTT assay; assay type: functional, cell-based
Aspergillus flavus = experiment: Antimicrobial activity against Aspergillus flavus NCIM 524 after 48 hr by two-fold serial dilution method; assay type: functional; conditions: NCIM 524, 48 h
HT-29 = experiment: Cytotoxicity against Homo sapiens (human) HT-29 cells after 24 hr by MTT assay; assay type: functional, cell-based; conditions: HT-29, 24 h
A549 = experiment: Cytotoxicity against Homo sapiens (human) A549 cells after 24 hr by MTT assay; assay type: functional, cell-based; conditions: A549, 24 h
Aspergillus niger = experiment: Antimicrobial activity against Aspergillus niger ATCC 6275 after 48 hr by two-foldserial dilution method; assay type: functional; conditions: ATCC 6275, 48 h

SMILES	MIC (Staphylococcus aureus) [µg/mL]	MIC (Enterococcus faecalis) [µg/mL]	MIC (Cryptococcus neoformans) [µg/mL]	MIC (Escherichia coli) [µg/mL]	IC50 (MCF7) [µM]	MIC (Candida albicans) [µg/mL]	MIC (Pseudomonas aeruginosa) [µg/mL]	IC50 (HeLa) [µM]	MIC (Aspergillus flavus) [µg/mL]	IC50 (HT-29) [µM]	IC50 (A549) [µM]	MIC (Aspergillus niger) [µg/mL]
CC1(C)S[C@@H]2[C@H](NC(=O)[C@H](N)c3ccccc3)C(=O)N2[C@H]1C(=O)O [AMPICILLIN]	2 (≈ 5.72 µM)	2 (≈ 5.72 µM)										
O=C(O)c1ccc(CN2C(=O)S/C(=C\c3ccccc3)C2=O)cc1	128 (≈ 377 µM)	64 (≈ 189 µM)	16 (≈ 47.1 µM)	4 (≈ 11.8 µM)	100	16 (≈ 47.1 µM)	8 (≈ 23.6 µM)	72	32 (≈ 94.3 µM)	88	90	16 (≈ 47.1 µM)
O=C(O)c1ccc(CN2C(=O)S/C(=C\c3ccncc3)C2=O)cc1	32 (≈ 94 µM)	16 (≈ 47 µM)	16 (≈ 47 µM)	16 (≈ 47 µM)	84	16 (≈ 47 µM)	16 (≈ 47 µM)	60	32 (≈ 94 µM)	80	72	32 (≈ 94 µM)
O=C(O)c1ccc(CN2C(=O)S/C(=C\c3ccc(F)cc3)C2=O)cc1	2 (≈ 5.6 µM)	4 (≈ 11.2 µM)	4 (≈ 11.2 µM)	4 (≈ 11.2 µM)	38	2 (≈ 5.6 µM)	4 (≈ 11.2 µM)	34	4 (≈ 11.2 µM)	32	36	4 (≈ 11.2 µM)
O=C(O)c1ccc(CN2C(=O)S/C(=C\c3ccccn3)C2=O)cc1	64 (≈ 188 µM)	64 (≈ 188 µM)	16 (≈ 47 µM)	16 (≈ 47 µM)	90	32 (≈ 94 µM)	16 (≈ 47 µM)	62	16 (≈ 47 µM)	78	80	32 (≈ 94 µM)
O=C(O)c1ccc(CN2C(=O)S/C(=C\c3ccco3)C2=O)cc1	32 (≈ 97.2 µM)	64 (≈ 194 µM)	64 (≈ 194 µM)	16 (≈ 48.6 µM)	90	64 (≈ 194 µM)	16 (≈ 48.6 µM)	80	32 (≈ 97.2 µM)	94	76	32 (≈ 97.2 µM)
Cc1ccc(/C=C2\SC(=O)N(Cc3ccc(C(=O)O)cc3)C2=O)cc1	32 (≈ 90.5 µM)	32 (≈ 90.5 µM)	64 (≈ 181 µM)	16 (≈ 45.3 µM)	100	64 (≈ 181 µM)	16 (≈ 45.3 µM)	68	32 (≈ 90.5 µM)	72	78	64 (≈ 181 µM)
Cn1cccc1/C=C1\SC(=O)N(Cc2ccc(C(=O)O)cc2)C1=O	64 (≈ 187 µM)	64 (≈ 187 µM)	32 (≈ 93.5 µM)	16 (≈ 46.7 µM)	70	32 (≈ 93.5 µM)	16 (≈ 46.7 µM)	90	16 (≈ 46.7 µM)	88	80	16 (≈ 46.7 µM)
